{
  "source": "paper PMC9461663",
  "about": "“Covalent Inhibition of Pyruvate Kinase M2 Reprograms Metabolic and Inflammatory Pathways in Hepatic Macrophages against Non-alcoholic Fatty Liver Disease” (International Journal of Biological Sciences, 2022)",
  "biological_target": "T1, Pyruvate kinase M2 (PKM2) (Mus musculus, UniProt P52480)",
  "T1 construct": "gene Pkm; full length recombinant mouse PKM2 (M2 isoform; pET-28a, from pLHCX-Flag-mPKM2)",
  "T1 sequence (P52480 whole entry, canonical isoform)": "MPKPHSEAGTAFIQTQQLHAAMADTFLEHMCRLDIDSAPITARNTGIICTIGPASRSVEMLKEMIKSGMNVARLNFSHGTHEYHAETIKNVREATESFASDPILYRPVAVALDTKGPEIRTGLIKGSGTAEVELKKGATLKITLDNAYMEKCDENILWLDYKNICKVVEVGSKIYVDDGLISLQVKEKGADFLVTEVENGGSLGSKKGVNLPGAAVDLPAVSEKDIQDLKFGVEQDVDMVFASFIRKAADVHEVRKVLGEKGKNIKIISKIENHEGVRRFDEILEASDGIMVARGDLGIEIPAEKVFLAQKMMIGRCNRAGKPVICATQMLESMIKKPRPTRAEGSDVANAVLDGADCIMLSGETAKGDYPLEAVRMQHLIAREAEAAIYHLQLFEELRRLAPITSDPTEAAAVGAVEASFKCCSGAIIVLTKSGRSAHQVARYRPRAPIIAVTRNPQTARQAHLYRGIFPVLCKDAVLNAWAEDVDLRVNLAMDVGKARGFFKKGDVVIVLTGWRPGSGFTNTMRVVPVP",
  "assay": "LC-MS/MS peptide mapping of the covalent adduct on recombinant PKM2; competition with biotin probe; pyruvate kinase activity assay (IC50)",
  "assay_type": "biochemical",
  "data": [
    {"compound": "CC1=C(O)C(=O)C=C2C1=CC=C1[C@@]2(C)CC[C@@]2(C)[C@@H]3C[C@](C)(C(=O)O)CC[C@]3(C)CC[C@]12C", "note": "[celastrol]", "values": [
      {"measurement": "IC50", "result": 305, "unit": "µM"}
    ]}
  ]
}
